Here are results for three compounds from PMC5350174, “Orai and TRPC channel characterization in FcεRI‐mediated calcium signaling and mediator secretion in human mast cells” (Physiological Reports, 2017).

Holding throughout (format): cell-based
Test [1] addresses T1, TRPC6 (Homo sapiens, UniProt Q9Y210).
T1 sequence (Q9Y210 1-931): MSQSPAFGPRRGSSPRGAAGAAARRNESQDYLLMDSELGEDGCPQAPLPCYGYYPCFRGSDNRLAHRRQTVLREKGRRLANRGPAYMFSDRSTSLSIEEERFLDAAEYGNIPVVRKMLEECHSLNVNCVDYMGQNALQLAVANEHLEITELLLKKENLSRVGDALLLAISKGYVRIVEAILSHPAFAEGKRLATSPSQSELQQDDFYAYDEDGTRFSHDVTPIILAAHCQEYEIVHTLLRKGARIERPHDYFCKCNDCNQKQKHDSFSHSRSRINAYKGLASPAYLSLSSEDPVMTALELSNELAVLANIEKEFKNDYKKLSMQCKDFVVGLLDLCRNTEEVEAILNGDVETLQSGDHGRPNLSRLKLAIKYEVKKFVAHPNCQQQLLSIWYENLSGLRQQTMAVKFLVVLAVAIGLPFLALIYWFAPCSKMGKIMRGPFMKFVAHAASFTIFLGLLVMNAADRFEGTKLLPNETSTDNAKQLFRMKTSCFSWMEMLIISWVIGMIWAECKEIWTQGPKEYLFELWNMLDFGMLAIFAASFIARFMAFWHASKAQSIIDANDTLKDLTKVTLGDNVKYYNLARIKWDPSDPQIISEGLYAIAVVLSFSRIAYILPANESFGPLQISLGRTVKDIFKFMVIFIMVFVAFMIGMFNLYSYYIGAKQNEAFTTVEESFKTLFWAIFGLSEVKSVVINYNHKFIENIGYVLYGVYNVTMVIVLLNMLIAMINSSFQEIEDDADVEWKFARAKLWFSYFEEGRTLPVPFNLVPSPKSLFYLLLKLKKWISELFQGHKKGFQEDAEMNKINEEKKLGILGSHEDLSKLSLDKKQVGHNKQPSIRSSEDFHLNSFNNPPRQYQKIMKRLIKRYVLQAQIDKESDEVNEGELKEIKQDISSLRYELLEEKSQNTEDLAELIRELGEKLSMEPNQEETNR
The experiment in a line: Fura-2 calcium imaging in HEK-TRPC6 cells; also whole-cell patch clamp of hTRPC6 in HEK293. Details: human TRPC6 expressed in HEK cells. (In general: In patch-clamp work, channel activity is measured electrically.)

Test [2] deals with T1, TRPC6. Briefly: Fura-2 calcium imaging in HEK-TRPC6 cells, inhibition of GSK-2934A-induced signal. On the set-up: human TRPC6 stably expressed in HEK cells.
Another test deals with T2, Orai1 (Homo sapiens, UniProt Q96D31).
T2 construct: Orai1/STIM1 over-expressed in HEK cells; with STIM1
The experiment in a line: ICRAC current inhibition in HEK cells over-expressing Orai1/STIM1 (data not shown). Particulars: HEK293; read-out: % inhibition at 10 μmol/L.

Each structure is given as a SMILES string.

T2 sequence (Q96D31 whole entry): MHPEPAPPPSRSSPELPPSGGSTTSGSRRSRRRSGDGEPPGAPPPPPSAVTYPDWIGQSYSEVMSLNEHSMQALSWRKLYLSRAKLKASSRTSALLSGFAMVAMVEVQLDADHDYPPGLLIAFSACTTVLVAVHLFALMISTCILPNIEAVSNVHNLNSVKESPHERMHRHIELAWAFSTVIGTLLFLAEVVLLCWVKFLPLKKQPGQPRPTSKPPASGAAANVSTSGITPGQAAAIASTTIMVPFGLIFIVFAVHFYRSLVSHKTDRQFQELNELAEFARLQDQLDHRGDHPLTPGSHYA
T2 sequence (Q13586 23-685 partner): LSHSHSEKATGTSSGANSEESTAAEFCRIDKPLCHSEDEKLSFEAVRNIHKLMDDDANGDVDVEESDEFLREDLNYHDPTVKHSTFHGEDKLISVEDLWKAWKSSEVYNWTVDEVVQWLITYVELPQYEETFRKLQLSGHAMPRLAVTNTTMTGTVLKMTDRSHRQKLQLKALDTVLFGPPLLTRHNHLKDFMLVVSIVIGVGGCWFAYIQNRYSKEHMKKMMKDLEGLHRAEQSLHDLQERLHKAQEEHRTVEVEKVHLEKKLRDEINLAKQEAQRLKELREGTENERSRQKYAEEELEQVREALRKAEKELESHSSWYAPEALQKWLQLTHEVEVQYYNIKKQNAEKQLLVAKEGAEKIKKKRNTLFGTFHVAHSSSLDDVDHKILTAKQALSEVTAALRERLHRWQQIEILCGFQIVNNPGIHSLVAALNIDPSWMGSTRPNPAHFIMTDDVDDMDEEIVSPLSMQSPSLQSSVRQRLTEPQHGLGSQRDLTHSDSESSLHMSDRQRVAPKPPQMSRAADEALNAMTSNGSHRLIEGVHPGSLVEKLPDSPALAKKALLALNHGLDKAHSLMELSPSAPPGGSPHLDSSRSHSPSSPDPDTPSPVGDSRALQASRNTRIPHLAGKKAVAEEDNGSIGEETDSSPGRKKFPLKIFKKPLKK

Take `O=C(c1cc2c(s1)CCCCC2)N1CCC(n2c(=O)[nH]c3ccccc32)CC1` [GSK-2934A, GSK1702934A]: the EC50 on TRPC6 [1] amounted to 6.6 pEC50. Turning to `Cc1sc(Nc2ccc(Cl)cc2F)nc1C(=O)N1CCC[C@H](C)[C@@H]1C` [GSK-3503A, GSK2833503A], at TRPC6 [2], the IC50 is listed as 7.8 pIC50. For `COc1ccc(OC)c(-c2ccc(NC(=O)c3ccncc3F)cc2)c1` [Synta66], on Orai1, the inhibition at 10 µM worked out at 94 ± 3%.
